Laboratory results as given in patent US10329309B2, “3-(3H-imidazo[4,5-B]pyridin-2-yl)-1H-pyrazolo[4,3-B]pyridines and therapeutic uses thereof” (Samumed, LLC, priority 2015, dated 2019).

Legend:
Type in all cases: cell-based
SW480 colon cancer cells = test: Cell viability assay (CellTiter-Blue), four days; details: Homo sapiens, 96 h; for EC50: CellTiter-Blue cell viability; for inhibition at 10 µM: read-out: percent inhibition at 10 μM (given for EC50 of >10 μM)
Method in brief: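 4-day exposure, 37 °C/5% CO2; ~2×10^3 SW480 cells/well; 8-pt 1:3 curve, 10–0.0045 μM, duplicates vs DMSO controls. Resazurin→resorufin fluorescence readout, ~3 h. EC50 by nonlinear fit; if >10 μM, % inhibition at 10 μM reported.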

[1] = system: primary human fibroblasts derived from IPF patients (LL29 cells), α-smooth muscle actin (αSMA); test: Inhibition of the fibrotic process: TGF-β1-treated primary human fibroblasts from IPF patients, αSMA staining; details: Fibroblast, 96 h, 4 days; for EC50: LL29 fibroblasts from IPF patients, TGF-β1 20 ng/mL, inhibition of fibrotic process; for inhibition at 10 µM: LL29 fibroblasts, TGF-β1 treated, read-out: percent inhibition at 10 μM (given for EC50 of >10 μM)
Method in brief: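 Read-out: fraction of αSMA-positive cells by high-content imaging, SYTOX-stained dead cells excluded, normalized to TGF-β1/DMSO wells. Cells got compound (10 μM–[…], 11 points) plus TGF-β1 20 ng/mL for 4 days. EC50 from triplicate curves; above 10 μM, % inhibition at 10 μM given.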

IL-6 (THP-1 cells) = test: Inhibition of IL-6 in LPS-stimulated THP-1 monocytes (HTRF); details: Homo sapiens; for EC50: LPS 500 ng/mL, IL-6 by HTRF; for inhibition at 10 µM: LPS stimulated, IL-6, at 10 μM, read-out: percent inhibition at 10 μM (given for EC50 of >10 μM)
Method in brief: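 IL-6 release was read as the HTRF 665/620 nm ratio after 22 h of 500 ng/mL LPS at 37 °C. Before stimulation, THP-1 cells kept 24 h in 1% FBS were exposed 2 h to a 10-point 1:3 compound series starting at 10 μM, in 0.1% DMSO. Four-parameter EC50s came from DMSO-normalized duplicates, with % inhibition at 10 μM reported beyond 10 μM.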

SMILES | EC50 (SW480 colon cancer cells) [µM] | EC50 (IL-6 (THP-1 cells)) [µM] | inhibition at 10 µM (SW480 colon cancer cells) [%] | EC50 [1] [µM] | inhibition at 10 µM [1] [%] | inhibition at 10 µM (IL-6 (THP-1 cells)) [%]
CN(C)c1cncc(-c2ccc3[nH]nc(-c4nc5c(N6CCCCC6)ccnc5[nH]4)c3n2)c1 [Compound 175, N,N-dimethyl-5-(3-(7-(piperidin-1-yl)-3H-imidazo[4,5-b]pyridin-2-yl)-1H-pyrazolo [4,3-b]pyridin-5-yl)pyridin-3-amine] | > 10 | > 10 | 13.6 | 2.53 | – | 27.6
Cc1cn(-c2ccnc3[nH]c(-c4n[nH]c5ccc(-c6cncc(NC(=O)CC(C)C)c6)nc45)nc23)cn1 [Compound 198, 3-methyl-N-(5-(3-(7-(4-methyl-1H-imidazol-1-yl)-3H-imidazo[4,5-b]pyridin-2-yl)-1H-pyrazolo[4,3-b]pyridin-5-yl)pyridin-3-yl)butanamide] | > 10 | > 10 | 46 | > 10 | 0 | 29.1
Cc1cn(-c2ccnc3[nH]c(-c4n[nH]c5ccc(-c6cncc(NC(=O)C(C)(C)C)c6)nc45)nc23)cn1 [Compound 204, N-(5-(3-(7-(4-methyl-1H-imidazol-1-yl)-3H-imidazo[4,5-b]pyridin-2-yl)-1H-pyrazolo[4,3-b]pyridin-5-yl)pyridin-3-yl)pivalamide] | > 10 | > 10 | 0 | > 10 | 38.8 | 36.3
Cc1cn(-c2ccnc3[nH]c(-c4n[nH]c5ccc(-c6cncc(CN7CCCC7)c6)nc45)nc23)cn1 [Compound 210, 3-(7-(4-methyl-1H-imidazol-1-yl)-3H-imidazo[4,5-b]pyridin-2-yl)-5-(5-(pyrrolidin-1-ylmethyl)pyridin-3-yl)-1H-pyrazolo[4,3-b]pyridine] | > 10 | > 10 | 12.6 | 6.74 | – | 21.7
Cc1cn(-c2ccnc3[nH]c(-c4n[nH]c5ccc(-c6cncc(NC(=O)C7CCC7)c6)nc45)nc23)cn1 [Compound 217, N-(5-(3-(7-(4-methyl-1H-imidazol-1-yl)-3H-imidazo[4,5-b]pyridin-2-yl)-1H-pyrazolo[4,3-b]pyridin-5-yl)pyridin-3-yl)cyclobutanecarboxamide] | > 10 | > 10 | 2.1 | 6.1 | – | 35.6
CN1CCN(c2ccnc3[nH]c(-c4n[nH]c5ccc(-c6cncc(N)c6)nc45)nc23)CC1 [Compound 227, 5-(3-(7-(4-methylpiperazin-1-yl)-3H-imidazo[4,5-b]pyridin-2-yl)-1H-pyrazolo[4,3-b]pyridin-5-yl)pyridin-3-amine] | > 10 | > 10 | 0 | > 10 | 32.8 | 51.9
CC(C)C(=O)Nc1cncc(-c2ccc3[nH]nc(-c4nc5c(N6CCN(C)CC6)ccnc5[nH]4)c3n2)c1 [Compound 233, N-(5-(3-(7-(4-methylpiperazin-1-yl)-3H-imidazo[4,5-b]pyridin-2-yl)-1H-pyrazolo [4,3-b]pyridin-5-yl)pyridin-3-yl)isobutyramide] | > 10 | > 10 | 0 | 4.84 | – | 16.4
CN1CCN(c2ccnc3[nH]c(-c4n[nH]c5ccc(-c6cncc(NC(=O)C7CCCC7)c6)nc45)nc23)CC1 [Compound 246, N-(5-(3-(7-(4-Methylpiperazin-1-yl)-3H-imidazo[4,5-b]pyridin-2-yl)-1H-pyrazolo[4,3-b]pyridin-5-yl)pyridin-3-yl)cyclopentanecarboxamide] | > 10 | > 10 | 0 | 2.24 | – | 15.7
CN1CCN(c2ccnc3[nH]c(-c4n[nH]c5ccc(-c6cncnc6)nc45)nc23)CC1 [Compound 251, 3-(7-(4-Methylpiperazin-1-yl)-3H-imidazo[4,5-b]pyridin-2-yl)-5-(pyrimidin-5-yl)-1H-pyrazolo[4,3-b]pyridine] | > 10 | > 10 | 0 | 4.36 | – | 8.3
c1cncc(-c2ccc3[nH]nc(-c4nc5cccnc5[nH]4)c3n2)c1 [Compound 256, 3-(3H-imidazo[4,5-b]pyridin-2-yl)-5-(pyridin-3-yl)-1H-pyrazolo[4,3-b]pyridine] | > 10 | > 10 | 22.2 | > 10 | 10.4 | 24.4
O=C(Cc1ccccc1)Nc1cncc(-c2ccc3[nH]nc(-c4nc5cccnc5[nH]4)c3n2)c1 [Compound 262, N-(5-(3-(3H-imidazo[4,5-b]pyridin-2-yl)-1H-pyrazolo[4,3-b]pyridin-5-yl)pyridin-3-yl)-2-phenylacetamide] | > 10 | > 10 | 5.5 | > 10 | 0 | 17.3

Now from value to molecule, other results behind:

EC50 (SW480 colon cancer cells) [µM] | EC50 (IL-6 (THP-1 cells)) [µM] | SMILES | inhibition at 10 µM (SW480 colon cancer cells) [%] | EC50 [1] [µM] | inhibition at 10 µM [1] [%] | inhibition at 10 µM (IL-6 (THP-1 cells)) [%]
> 10 | > 10 | CCCC(=O)Nc1cncc(-c2ccc3[nH]nc(-c4nc5c(-c6ccncc6)ccnc5[nH]4)c3n2)c1 [Compound 129, N-(5-(3-(7-(pyridin-4-yl)-3H-imidazo[4,5-b]pyridin-2-yl)-1H-pyrazolo[4,3-b]pyridin-5-yl)pyridin-3-yl)butyramide] | 5.7 | > 10 | 0 | 14.9
> 10 | > 10 | c1cc(-c2ccc3[nH]nc(-c4nc5c(-c6ccncc6)ccnc5[nH]4)c3n2)ccn1 [Compound 130, 5-(pyridin-4-yl)-3-(7-(pyridin-4-yl)-3H-imidazo[4,5-b]pyridin-2-yl)-1H-pyrazolo [4,3-b]pyridine] | 0 | > 10 | 39.3 | 18.9
> 10 | > 1 | O=C(Nc1cncc(-c2ccc3[nH]nc(-c4nc5c(-c6ccncc6)ccnc5[nH]4)c3n2)c1)C1CCCCC1 [Compound 135, N-(5-(3-(7-(pyridin-4-yl)-3H-imidazo[4,5-b]pyridin-2-yl)-1H-pyrazolo[4,3-b]pyridin-5-yl)pyridin-3-yl)cyclohexanecarboxamide] | 3.8 | > 10 | 0 | 22.1
> 10 | > 10 | CCNCc1cncc(-c2ccc3[nH]nc(-c4nc5c(-c6ccccn6)ccnc5[nH]4)c3n2)c1 [Compound 146, N-((5-(3-(7-(pyridin-2-yl)-3H-imidazo[4,5-b]pyridin-2-yl)-1H-pyrazolo[4,3-b]pyridin-5-yl)pyridin-3-yl)methyl)ethanamine] | 23.3 | 1.13 | – | 4.5
> 10 | > 10 | O=C(Nc1cncc(-c2ccc3[nH]nc(-c4nc5c(-c6ccccn6)ccnc5[nH]4)c3n2)c1)c1ccccc1 [Compound 151, N-(5-(3-(7-(Pyridin-2-yl)-3H-imidazo[4,5-b]pyridin-2-yl)-1H-pyrazolo[4,3-b]pyridin-5-yl)pyridin-3-yl)benzamide] | 2.7 | > 10 | 0 | 39.1
> 10 | > 10 | CCCCC(=O)Nc1cncc(-c2ccc3[nH]nc(-c4nc5c(-c6ccccn6)ccnc5[nH]4)c3n2)c1 [Compound 159, N-(5-(3-(7-(pyridin-2-yl)-3H-imidazo[4,5-b]pyridin-2-yl)-1H-pyrazolo[4,3-b]pyridin-5-yl)pyridin-3-yl)pentanamide] | 6.7 | > 10 | 15.4 | 33.6
4.65 | > 10 | CCC(=O)Nc1cncc(-c2ccc3[nH]nc(-c4nc5c(N6CCCCC6)ccnc5[nH]4)c3n2)c1 [Compound 169, N-(5-(3-(7-(piperidin-1-yl)-3H-imidazo[4,5-b]pyridin-2-yl)-1H-pyrazolo[4,3-b]pyridin-5-yl)pyridin-3-yl)propionamide] | – | 5.3 | – | 12.7
5.55 | 8.3 | CN(C)Cc1cncc(-c2ccc3[nH]nc(-c4nc5c(N6CCCCC6)ccnc5[nH]4)c3n2)c1 [Compound 181, N,N-dimethyl-1-(5-(3-(7-(piperidin-1-yl)-3H-imidazo[4,5-b]pyridin-2-yl)-1H-pyrazolo[4,3-b]pyridin-5-yl)pyridin-3-yl)methanamine] | – | 1.36 | – | –
